Test results reported in patent US8710233B2 (Gruenenthal GmbH, priority 2005, dated 2014).
pIC50, pKi: −log10 of the molar value. Like-named read-outs stand apart in the source and are kept apart here.

How the values were obtained:
Type in all cases: cell-based
[1] = molecular target: T1, vanilloid receptor 1 (VR1/TRPV1) of the rat species (Rattus norvegicus, UniProt O35433); experiment: FLIPR Ca2+ influx assay on rat dorsal root ganglia cells (pharmacological method I)
T1 construct: The spinal column is removed from decapitated rats; from tissue; host or cells: primary cells dissociated from rat dorsal root ganglia
In short: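 Primary rat dorsal root ganglion cells loaded with 2 μM Fluo-4, Ca2+ influx read on FLIPR as peak fluorescence. Triplicates, at least 3 independent experiments.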

vanilloid receptor (VR1) = molecular target: T2, vanilloid receptor (VR1) (Homo sapiens, UniProt Q8NER1); experiment: FLIPR Ca2+ influx assay on CHO K1 cells transfected with the VR1 gene (pharmacological method II)
T2 construct: expressed in transfected cells; host or cells: CHO K1 cells (ECACC), stably transfected

VR1/TRPV1 receptor = VR1/TRPV1 receptor (Homo sapiens, UniProt Q8NER1); experiment: IC50 (human) after pH stimulus; conditions: for inhibition at 1 µM: ne = no effect
[2] = table 4, capsaicin, read-out: Ki (rat) Cap.
[3] = table 4, capsaicin, read-out: Ki (human) Cap.
[4] = read-out: inhibition in percent, IC50 (human) after pH stimulus

T1 sequence (O35433 whole entry): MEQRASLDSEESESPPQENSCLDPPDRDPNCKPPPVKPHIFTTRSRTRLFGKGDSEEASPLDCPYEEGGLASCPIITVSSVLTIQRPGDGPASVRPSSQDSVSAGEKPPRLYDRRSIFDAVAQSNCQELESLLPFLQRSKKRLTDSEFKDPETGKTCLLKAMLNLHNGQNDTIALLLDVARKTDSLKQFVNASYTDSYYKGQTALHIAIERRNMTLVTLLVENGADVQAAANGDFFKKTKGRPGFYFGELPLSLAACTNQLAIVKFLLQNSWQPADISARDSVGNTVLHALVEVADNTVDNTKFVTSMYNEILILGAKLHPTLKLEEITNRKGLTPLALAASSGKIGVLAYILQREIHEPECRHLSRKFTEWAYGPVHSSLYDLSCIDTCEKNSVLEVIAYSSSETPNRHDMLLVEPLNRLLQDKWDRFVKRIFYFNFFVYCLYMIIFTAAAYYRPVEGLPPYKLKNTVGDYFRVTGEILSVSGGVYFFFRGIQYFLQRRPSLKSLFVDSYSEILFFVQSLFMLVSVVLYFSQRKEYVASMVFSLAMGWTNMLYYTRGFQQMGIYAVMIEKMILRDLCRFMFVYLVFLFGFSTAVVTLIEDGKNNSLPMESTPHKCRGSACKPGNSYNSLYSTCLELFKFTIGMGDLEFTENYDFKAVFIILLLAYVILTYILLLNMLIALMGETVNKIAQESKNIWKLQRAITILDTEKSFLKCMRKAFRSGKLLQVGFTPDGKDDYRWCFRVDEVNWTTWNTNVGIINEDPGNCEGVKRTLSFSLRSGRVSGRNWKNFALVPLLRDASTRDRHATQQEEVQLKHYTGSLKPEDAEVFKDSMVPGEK
T2 sequence (Q8NER1 whole entry): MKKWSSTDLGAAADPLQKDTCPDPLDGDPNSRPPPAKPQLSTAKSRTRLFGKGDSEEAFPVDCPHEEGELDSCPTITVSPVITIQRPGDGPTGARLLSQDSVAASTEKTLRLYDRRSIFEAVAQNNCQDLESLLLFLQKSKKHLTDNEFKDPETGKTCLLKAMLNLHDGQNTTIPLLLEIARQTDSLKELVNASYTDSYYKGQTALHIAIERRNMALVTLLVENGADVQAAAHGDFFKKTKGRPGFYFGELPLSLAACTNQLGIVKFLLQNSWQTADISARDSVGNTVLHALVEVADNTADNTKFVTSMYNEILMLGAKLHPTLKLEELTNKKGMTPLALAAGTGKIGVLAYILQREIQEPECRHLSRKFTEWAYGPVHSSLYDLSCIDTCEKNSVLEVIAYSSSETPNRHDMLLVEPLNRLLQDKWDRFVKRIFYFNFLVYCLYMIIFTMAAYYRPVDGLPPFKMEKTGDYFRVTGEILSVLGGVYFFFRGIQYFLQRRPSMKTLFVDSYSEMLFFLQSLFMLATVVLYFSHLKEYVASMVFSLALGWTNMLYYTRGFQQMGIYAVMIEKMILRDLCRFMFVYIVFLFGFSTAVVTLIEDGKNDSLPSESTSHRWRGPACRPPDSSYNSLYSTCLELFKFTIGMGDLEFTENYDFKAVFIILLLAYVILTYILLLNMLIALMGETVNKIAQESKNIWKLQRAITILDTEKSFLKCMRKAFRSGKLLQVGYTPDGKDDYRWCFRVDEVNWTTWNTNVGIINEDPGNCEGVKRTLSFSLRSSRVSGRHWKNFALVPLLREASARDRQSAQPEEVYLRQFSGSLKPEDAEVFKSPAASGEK
Chain of VR1/TRPV1 receptor (Q8NER1 whole entry): as above

For `Cc1cccc(N2CCN(c3nc(C(F)(F)F)ccc3CNC(=O)C(C)c3ccc(NS(C)(=O)=O)c(F)c3)CC2)c1` (centres unmarked) [Example 220, 2-(3-fluoro-4-methylsulfonamido-phenyl)-N-[2-(4-m-tolyl-piperazin-1-yl)-6-trifluoromethyl-pyridin-3-ylmethyl]-propionamide], the pKi [1, 2] was 8.62, the pKi (vanilloid receptor (VR1); [3]) was 8.47 and the pIC50 (VR1/TRPV1 receptor; table 4) was 7.41.
For `CC(C(=O)NCc1ccc(C(F)(F)F)cc1N1CCC(c2ccc(F)cc2)CC1)c1ccc(NS(C)(=O)=O)c(F)c1` (centres unmarked) [Example 255, 2-(3-fluoro-4-methylsulfonamido-phenyl)-N-{2-[4-(4-fluoro-phenyl)-piperidin-1-yl]-4-trifluoromethyl-benzyl}-propionamide], the pKi [1, 2] was 8.89, the pKi (vanilloid receptor (VR1); [3]) was 9.05 and the pIC50 (VR1/TRPV1 receptor; table 4) was 7.00.
Work on `CC(C)COc1cc(C(C)(C)C)ccc1CNC(=O)C(C)c1ccc(NS(C)(=O)=O)c(F)c1` (centres unmarked) [Example 133, N-(4-tert-butyl-2-isobutoxy-benzyl)-2-(3-fluoro-4-methylsulfonamido-phenyl)-propionamide] yielded a pKi [1, 2] of 9.15, a pKi (vanilloid receptor (VR1); [3]) of 8.68 and an inhibition at 1 µM (VR1/TRPV1 receptor; [4]) of 62%.
Work on `Cc1cccc(N2CCN(c3cc(C(F)(F)F)ccc3CNC(=O)C(C)c3ccc(NS(C)(=O)=O)c(F)c3)CC2)c1` (centres unmarked) [Example 247, 2-(3-fluoro-4-methylsulfonamido-phenyl)-N-[2-(4-m-tolyl-piperazin-1-yl)-4-trifluoromethyl-benzyl]-propionamide] yielded a pKi [1, 2] of 9.30, a pKi (vanilloid receptor (VR1); [3]) of 8.74 and an inhibition at 0.1 µM (VR1/TRPV1 receptor; @ 0.1 μM, read-out: inhibition in percent, IC50 (human) after pH stimulus) of 36%. The inhibition at 1 µM (VR1/TRPV1 receptor; [4]) was 69%.
Molecule `CC(C(=O)NCc1ccc(C(F)(F)F)cc1Cl)c1ccc(NS(C)(=O)=O)c(F)c1` (centres unmarked) [Example 75, N-(2-chloro-4-(trifluoromethyl)benzyl)-2-(3-fluoro-4-(methylsulfonamido)phenyl)propanamide] has a pKi ([1]; Table 2, displacement of capsaicin (100 nM), Cheng-Prusoff, read-out: Ki (rat)) of 7.89, a pKi (vanilloid receptor (VR1); Table 2, displacement of capsaicin (100 nM), Cheng-Prusoff, read-out: Ki (human)) of 8.40 and a pIC50 (VR1/TRPV1 receptor; Table 2) of 5.92.
In the case of `CCCCOc1nc(C(F)(F)F)ccc1CNC(=O)C(C)c1ccc(NS(C)(=O)=O)c(C)c1` (centres unmarked) [Example 256, N-(2-butoxy-6-trifluoromethyl-pyridin-3-ylmethyl)-2-(4-methylsulfonamido-3-methyl-phenyl)-propionamide], the pKi [1, 2] was 9.52, the pKi (vanilloid receptor (VR1); [3]) was 9.22 and the inhibition at 1 µM (VR1/TRPV1 receptor; [4]) was 59%.
`CC(=O)OC1CCN(c2nc(C(F)(F)F)ccc2CNC(=O)C(C)c2ccc(NS(C)(=O)=O)c(F)c2)CC1` (centres unmarked) [Example 158, acetic acid 3′-{[2-(3-fluoro-4-methylsulfonamido-phenyl)-propionylamino]-methyl}-6′-trifluoromethyl-3,4,5,6-tetrahydro-2H-[1,2′]bipyridinyl-4-yl ester] showed a pKi [1, 2] of 7.90, a pKi (vanilloid receptor (VR1); [3]) of 8.40 and a pIC50 (VR1/TRPV1 receptor; table 4) of 6.86.
Work on `CC(C(=O)NCc1ccc(C(F)(F)F)nc1N1CCN(C2CCCCC2)CC1)c1ccc(NS(C)(=O)=O)c(F)c1` (centres unmarked) [Example 260, N-[2-(4-cyclohexyl-piperazin-1-yl)-6-trifluoromethyl-pyridin-3-ylmethyl]-2-(3-fluoro-4-methylsulfonamido-phenyl)-propionamide] yielded a pKi [1, 2] of 7.60, a pKi (vanilloid receptor (VR1); [3]) of 7.67 and an inhibition at 1 µM (VR1/TRPV1 receptor; [4]) of 51%. The inhibition at 10 µM (VR1/TRPV1 receptor; @ 10 μM, read-out: inhibition in percent, IC50 (human) after pH stimulus) was 66%.
`Cc1ccc(Nc2nc(C(F)(F)F)ccc2CNC(=O)C(C)c2ccc(NS(C)(=O)=O)c(F)c2)cc1C` (centres unmarked) [Example 135, N-[2-(3,4-dimethyl-phenylamino)-6-trifluoromethyl-pyridin-3-ylmethyl]-2-(3-fluoro-4-methylsulfonamido-phenyl)-propionamide] showed a pKi [1, 2] of 7.31, a pKi (vanilloid receptor (VR1); [3]) of 7.41 and a pIC50 (VR1/TRPV1 receptor; table 4) of 5.94.
For `CC(C(=O)NCc1ccc(C(F)(F)F)nc1OCc1ccc(F)cc1)c1ccc(NS(C)(=O)=O)c(F)c1` (centres unmarked) [Example 175, N-[2-(4-fluoro-benzyloxy)-6-trifluoromethyl-pyridin-3-ylmethyl]-2-(3-fluoro-4-methylsulfonamido-phenyl)-propionamide], the pKi [1, 2] was 8.92, the pKi (vanilloid receptor (VR1); [3]) was 8.60 and the pIC50 (VR1/TRPV1 receptor; table 4) was 7.60.
